Common to all, as to assay: NCI tumour cell line growth inhibition, 48 h
Assay [1] deals with 786-0 renal.
Assay [2] has as its system A498 renal.
The test system of assay [3] is ACHN renal.
In assay [4] the test system is CCRF-CEM leukemia.
The subject of assay [5] is IGROV1 ovarian.
Assay [6] relates to K-562 leukemia.
Assay [7] deals with MCF7 breast.
For assay [8], the system named is MDA-MB-231 breast.
Assay [9] relates to MOLT-4 leukemia.
The subject of assay [10] is NCI-H226 lung.
Assay [11] deals with OVCAR-3 ovarian.
Assay [12] concerns OVCAR-5 ovarian.
Assay [13] concerns SK-MEL-2 melanoma.
For assay [14], the system named is SK-MEL-28 melanoma.
Assay [15] deals with SNB-19 CNS.
For assay [16], the system named is U251 CNS.
Assay [17] concerns UACC-257 melanoma.
The test system of assay [18] is UACC-62 melanoma.
The subject of assay [19] is HL-60(TB) leukemia.
The subject of assay [20] is MALME-3M melanoma.

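A five-concentration, 48-hour dose response in 96-well plates underlies each endpoint, interpolated linearly between surrounding concentrations. TGI: total growth inhibition.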

From PubChem BioAssay (NCI) come the findings set out here.

Take `CC(C)(C)[Si](C)(C)OCCc1ccccc1C1CC2(S(=O)(=O)c3ccccc3)ON1CC2S(=O)(=O)c1ccccc1` (configuration not stated): the TGI in assay [1], in assay [2], in assay [3], in assay [4], in assay [5] and in assay [6] was > 100 µM each time. The TGI in assay [7], in [8], in [9], in assay [10], in [11] and in assay [12] was > 100 µM each time. Moreover, the TGI in assay [13], in [14], in assay [15], in assay [16], in assay [17] and in assay [18] was > 100 µM each time.

With `CO[C@@H]1C[C@H]2[C@@H]3CC[C@H]([C@H](C)COC(C)=O)[C@@]3(C)CC[C@@H]2[C@@]2(C)CC[C@H]3C[C@]312`, the TGI in [1], in [2], in assay [3], in assay [4], in [19] and in [5] was > 100 µM in each case. In addition, the TGI in assay [6], in assay [20], in [7], in assay [8], in assay [9] and in assay [10] was > 100 µM throughout. Further, the TGI in assay [11], in assay [12], in [14], in assay [15], in assay [16] and in [17] was > 100 µM each time.

With `C=CCc1oc(C)nc1CCCC`, the TGI in assay [1], in assay [2], in assay [3], in assay [4], in assay [19] and in assay [5] was > 100 µM each time. Moreover, the TGI in assay [6], in assay [20], in [7], in assay [8], in [9] and in assay [10] was > 100 µM throughout. Moreover, the TGI in assay [11], in assay [12], in [14], in [15], in [16] and in assay [17] was > 100 µM in each case. The TGI in assay [18] is > 100 µM.

In the case of `COC(=O)[C@]12C3=C(O)C(=O)C[C@H]1OC[C@H]2C=CC3`, the TGI in assay [1], in [2], in [3], in assay [5], in assay [6] and in assay [20] was > 100 µM throughout. Besides, the TGI in assay [7], in assay [8], in assay [11], in [12], in assay [13] and in assay [14] was > 100 µM in each case. In addition, the TGI in assay [15], in [16], in [17] and in [18] was > 100 µM in each case.

Turning to `O=c1[nH]nc(-c2ccccc2)n1-c1cccc([N+](=O)[O-])c1`, the TGI in [1], in [2], in assay [3], in assay [4], in assay [5] and in assay [6] was > 100 µM in each case. Further, the TGI in assay [20], in assay [7], in [8], in assay [9], in [10] and in [11] was > 100 µM in each case. Further, the TGI in [12], in assay [13], in [14], in assay [15], in assay [16] and in assay [17] was > 100 µM throughout. Further, the TGI in assay [18] is > 100 µM.

As for `COC1(OC)N=C(N)C2(C#N)C(C)=C3NCN(C)N=C3C12C#N` (configuration not stated), the TGI in assay [1], in assay [2], in assay [3], in assay [5], in assay [6] and in assay [20] was > 100 µM each time. The TGI in assay [7], in [8], in assay [10], in [11], in assay [12] and in assay [13] was > 100 µM throughout. The TGI in [14], in assay [15], in assay [16], in assay [17] and in assay [18] was > 100 µM throughout.

In the case of `O=c1[nH]c2ccc(Cl)cc2o1`, the TGI in assay [1], in assay [2], in [3], in assay [4], in assay [19] and in [5] was > 100 µM in each case. Besides, the TGI in [6], in assay [20], in assay [7], in assay [8], in [9] and in assay [10] was > 100 µM in each case. Moreover, the TGI in [11], in assay [12], in [15], in assay [16], in assay [17] and in [18] was > 100 µM in each case.

`CCOC(=O)c1csc(C(CSCc2ccc(OC)cc2)N2C(=O)c3ccccc3C2=O)n1` (configuration not stated): the TGI in [1], in assay [2], in assay [3], in assay [4], in [19] and in assay [5] was > 100 µM in each case. The TGI in assay [6], in [20], in assay [7], in assay [8], in assay [9] and in assay [10] was > 100 µM in each case. Also, the TGI in assay [11], in [12], in [14], in assay [15], in assay [16] and in assay [17] was > 100 µM throughout. Besides, in [18], the TGI is > 100 µM.

Turning to `Cc1ccc2c(c1)C=CC1(O2)N(c2ccccc2)C(=S)OC1(C)C` (configuration not stated), the TGI in assay [1] is > 100 µM; in assay [2], > 100 µM; in assay [3] it was > 100 µM; in assay [4] it was > 100 µM; in assay [19], 31.2 µM; in assay [5], > 100 µM. Also, the TGI in assay [6], in assay [7], in [8], in assay [9], in assay [10] and in assay [11] was > 100 µM throughout. Moreover, the TGI in assay [12], in [13], in assay [14], in [15], in [16] and in assay [17] was > 100 µM each time. Moreover, the TGI in assay [18] was > 100 µM.

On to `C/C(O)=C(\C=NC(=S)c1cccnc1)C(=O)Nc1ccccc1C`, for which the TGI in assay [1], in [2], in assay [3], in assay [4], in assay [5] and in assay [6] was > 100 µM throughout. For the same molecule, the TGI in assay [7], in [8], in assay [9], in assay [10], in assay [11] and in assay [12] was > 100 µM throughout. The TGI in assay [13], in [14], in [15], in assay [16], in assay [17] and in assay [18] was > 100 µM throughout.

Take `CC1(C)OC[C@H](COCOP2(=O)Oc3ccc4ccccc4c3-c3c(ccc4ccccc34)O2)O1`: the TGI in assay [1] amounted to 81.6 µM; in [2] it was 31 µM; in [3], 37.3 µM; in assay [4], 84.8 µM; in assay [19], 48.5 µM; in assay [5], 72.2 µM. The TGI in assay [6] stood at 80.6 µM; in assay [20], 37.2 µM; in [7], 12.2 µM; in assay [8] it was 31 µM; in assay [9], 41.4 µM; in [10] it was 37.3 µM. Also, the TGI in assay [11] was 29.6 µM; in assay [12], 33.4 µM; in assay [14], 27 µM; in assay [15], 34.7 µM; in assay [16], 31.9 µM; in [18], 46.9 µM.

Regarding `CC(=O)N1C(=O)c2cc3ccccc3cc21`, the TGI was > 100 µM in assay [1]; 89.4 µM in [2]; > 100 µM in assay [3]; > 100 µM in assay [4]; > 100 µM in assay [19]; > 100 µM in assay [5]. In addition, the TGI in [6], in [7], in assay [8], in assay [10], in assay [12] and in assay [13] was > 100 µM each time. Besides, the TGI in assay [14], in assay [15], in [16] and in [18] was > 100 µM in each case.

On to `COc1ccc2nc3n(c2c1)C(c1c(F)cccc1F)SC3` (configuration not stated), for which the TGI in assay [1] is > 100 µM; in assay [2], > 100 µM; in [3], > 100 µM; in assay [4] it was > 100 µM; in assay [19], 78.7 µM; in [5] it was > 100 µM. Besides, the TGI is > 100 µM in assay [6]; > 100 µM in [7]; > 100 µM in assay [8]; > 100 µM in assay [9]; 66.2 µM in assay [10]; > 100 µM in assay [11]. Also, the TGI in [12] was > 100 µM; in [13], 74.9 µM; in assay [14], > 100 µM; in assay [15], 93.3 µM; in [16] it was > 100 µM; in assay [17], > 100 µM. The TGI in assay [18] was > 100 µM.

As to `CC(=Nc1cccc(Cl)c1)c1ccncc1`, the TGI in assay [1], in [2], in assay [3], in assay [4], in assay [5] and in assay [6] was > 100 µM throughout. The TGI in assay [20], in assay [7], in [8], in assay [9], in assay [10] and in assay [11] was > 100 µM each time. Moreover, the TGI in assay [12], in assay [13], in assay [14], in [15], in assay [16] and in [18] was > 100 µM in each case.

For `CNC(=O)CCCNC(=O)CCCCC(=O)N(C)C`, the TGI in assay [1], in assay [2], in [3], in assay [6], in assay [20] and in assay [7] was > 100 µM in each case. Also, the TGI in assay [8], in assay [9], in assay [11], in assay [12], in assay [13] and in assay [14] was > 100 µM throughout. Further, the TGI in assay [15], in [16] and in assay [18] was > 100 µM in each case.
